Source: US8334272B2, “Methods for nucleic acid transfer into cells” (Northwestern University, priority 2007, dated 2012)
“Also recorded” adds a separate entry of the source.

Key:
A549 cells = assay: Luciferase expression after electroporation of pCMV-Lux-DTS plasmid (transfection efficiency); type: cell-based, human; conditions: for luciferase expression versus DMSO (vehicle) treated or wild type cells: A549, 3 hours after electroporation, 1 μM TSA, 3 mM 17b, 1 mM 17-AAG, 10 nM okadaic acid; for exogenous gene expression as measured by luciferase expression over appropriate control (FIG. 4): A549 cell cultures; for exogenous gene expression (luciferase) versus vehicle control: A549, 24 hours after electroporation and 25 hours after drug treatment
Procedure: Human adenocarcinoma A549 cells (ATCC, #CCL-185, Rockville, Md.) were grown in DMEM supplemented with 10% fetal bovine serum (FBS). A stable line of A549 cells expressing firefly luciferase was constructed by transfection of cells with plasmid pGL4.14[luc2/Hygro] (Promega, Madison, Wis.) and selection with hygromycin. Colonies were pooled and passaged under selection. HIF-1 and HIF-2 knockdowns were created in A549 cells using retroviral methods with the PT67 packaging cell line (Clontech, Mountain View, Calif.). PT67 cells were transfected with 10 to 15 μg of specific shRNA-expressing or empty plasmids using lipofectin (Invitrogen, Carlsbad, Calif.) according to the manufacturer's protocol. Virus-containing medium was supplemented with 8 μg/ml of polybrene (Sigma, St. Louis, Mo.) for infection. Stable HDAC6 knockdown or stable HDAC6 overexpressing A549 cells were a generous gift from T. P. Yao (Duke University). For electroporations, cells were grown to confluency in […] dishes, and rinsed twice in serum- and antibiotic-free media. Five micrograms of plasmids in 500 µl of serum and antibiotic-free DMEM were added to each well and one […] square wave electric pulse was applied using a PetriPulser electrode (BTX, San Diego, Calif.). […] Drugs were used at the following final concentrations: 1 μM TSA, 1 mM Sodium Butyrate, […], 3 mM 17B, 1 mM 17-AAG, and 10 nM Okadaic Acid. […] All luciferase measurements were normalized to total cell protein and reported as fold-increases in expression over DMSO (vehicle-treated). All experiments were performed in triplicate wells and the experiments were repeated at least three times. For statistical analyses, student's t-tests were used. Cells grown on etched coverslips were microinjected as previously described. At least 100 cells were injected for each condition and experiments were repeated three times.
Plasmid pCMV-lux-DTS expresses luciferase from the CMV immediate early promoter and contains the SV40 DNA nuclear targeting sequence downstream of the reporter gene. All plasmids were purified from E. coli using Qiagen Gigaprep kits as described by the manufacturer (Qiagen, Chatsworth, Calif.). Plasmid pDD306, expressing GFP from the CMV promoter and which contains the GeneGrip1 PNA binding site (Gene Therapy Systems, San Diego, Calif.) was labeled with Cy3-labeled PNA as described. Briefly, plasmids were labeled with Cy3-PNA in the manufacturer's labeling buffer at 37° C. for 2 hours followed by isopropanol precipitation to remove unbound Cy3-PNA. Plasmid labeling was verified by agarose gel electrophoresis and fluorescent detection in the absence of ethidium bromide.

[1] = test system: cytoplasmic HDACs (HDAC6); conditions: A549 cytoplasmic extracts
Procedure: HDAC6 Activity measurements. Cytoplasmic lysates were prepared as previously described to separate HDAC6 from nuclear HDAC activity (36). Cells were then probed for HDAC activity using a fluorescent HDAC activity kit (BioMol International LP, Plymouth Meeting, Pa.). At various times during the development of the assay, the reagents were quenched, allowing for a determination of the relative activity of the cytoplasmic HDACs.

acetylated tubulin = assay: Total and acetylated tubulin by immunofluorescence and Western blot; type: cell-based, human; design: level of microtubules (polymerized tubulin) / acetylated microtubules after treatment: dose or concentration left out as unconfirmed; conditions: for microtubule (tubulin) acetylation: cell cultures, immunofluorescence, versus treatment controls
Procedure: Prior to collection, samples were washed once in PBS (37° C.), and stabilized in two 15 minute washes in microtubule stabilization buffer (0.1M PIPES, pH 6.75, 1 mM EGTA, 1 mM MgSO4, 2 M glycerol, protease inhibitors). Cells were then lysed in microtubule lysis buffer (25 mM Tris-HCl, pH 7.4, 0.4 M NaCl and 0.5% SDS). All extracted samples were mixed with SDS-PAGE sample buffer (112.5 mM Tris-HCl, pH 6.8, 10%-mercaptoethanol, 3.6% SDS, 1.8% glycerol, 0.001% bromophenol blue) such that equal amounts of total protein were loaded for each fraction. The samples were boiled for 3 min and separated by 12% SDS-PAGE gels according to the methods previously described by Lugtenberg. Proteins were transferred to nitrocellulose and probed using anti-acetylated (1:1000, Sigma) or anti-tubulin (1:1000, Sigma) in PBS with 5% fat-free powdered milk. Blots were developed with a chemiluminescence detection kit, and autoradiograms were digitized before densitometry using ImageJ (NIH, Bethesda, Md.). All samples were run in duplicate and were from at least three independent experiments. After all treatment regimes, cells were washed with PBS followed by a 10 minute incubation in fixation/permeabilization buffer (60 mM PIPES, 25 mM HEPES, 10 mM EGTA, 3 mM MgCl2, 0.2% Triton X-100, and 3.7% paraformaldehyde). Cells were then washed in PBS and blocked for 1 hour in PBS containing 1 mg/ml BSA. After blocking, the cells were incubated for 1 hour with the appropriate primary antibody in PBS with 0.1 mg/ml BSA, washed in PBS, and reacted for 30 minutes with Alexa 488 or 555 conjugated secondary antibody (1:200, Molecular Probes, Eugene, Oreg.) in PBS with 0.1% BSA. Following a second set of washes in PBS, the silastic membranes were excised from the culture plates, placed face up on a microscope slide, and covered with a coverslip. All images were acquired in OpenLab (Improvision, Lexington, Mass.) with a Hamamatsu Orca II-ER camera attached to Leica DRMX-2 upright fluorescent microscope using a 100× oil-immersion objective.

HDAC6 = target: T1, HDAC6 (Homo sapiens, UniProt Q9UBN7); conditions: sodium butyrate 1 mM, Trichostatin A 1 μM where stated; cited from earlier work
T1 sequence (Q9UBN7 1-1215): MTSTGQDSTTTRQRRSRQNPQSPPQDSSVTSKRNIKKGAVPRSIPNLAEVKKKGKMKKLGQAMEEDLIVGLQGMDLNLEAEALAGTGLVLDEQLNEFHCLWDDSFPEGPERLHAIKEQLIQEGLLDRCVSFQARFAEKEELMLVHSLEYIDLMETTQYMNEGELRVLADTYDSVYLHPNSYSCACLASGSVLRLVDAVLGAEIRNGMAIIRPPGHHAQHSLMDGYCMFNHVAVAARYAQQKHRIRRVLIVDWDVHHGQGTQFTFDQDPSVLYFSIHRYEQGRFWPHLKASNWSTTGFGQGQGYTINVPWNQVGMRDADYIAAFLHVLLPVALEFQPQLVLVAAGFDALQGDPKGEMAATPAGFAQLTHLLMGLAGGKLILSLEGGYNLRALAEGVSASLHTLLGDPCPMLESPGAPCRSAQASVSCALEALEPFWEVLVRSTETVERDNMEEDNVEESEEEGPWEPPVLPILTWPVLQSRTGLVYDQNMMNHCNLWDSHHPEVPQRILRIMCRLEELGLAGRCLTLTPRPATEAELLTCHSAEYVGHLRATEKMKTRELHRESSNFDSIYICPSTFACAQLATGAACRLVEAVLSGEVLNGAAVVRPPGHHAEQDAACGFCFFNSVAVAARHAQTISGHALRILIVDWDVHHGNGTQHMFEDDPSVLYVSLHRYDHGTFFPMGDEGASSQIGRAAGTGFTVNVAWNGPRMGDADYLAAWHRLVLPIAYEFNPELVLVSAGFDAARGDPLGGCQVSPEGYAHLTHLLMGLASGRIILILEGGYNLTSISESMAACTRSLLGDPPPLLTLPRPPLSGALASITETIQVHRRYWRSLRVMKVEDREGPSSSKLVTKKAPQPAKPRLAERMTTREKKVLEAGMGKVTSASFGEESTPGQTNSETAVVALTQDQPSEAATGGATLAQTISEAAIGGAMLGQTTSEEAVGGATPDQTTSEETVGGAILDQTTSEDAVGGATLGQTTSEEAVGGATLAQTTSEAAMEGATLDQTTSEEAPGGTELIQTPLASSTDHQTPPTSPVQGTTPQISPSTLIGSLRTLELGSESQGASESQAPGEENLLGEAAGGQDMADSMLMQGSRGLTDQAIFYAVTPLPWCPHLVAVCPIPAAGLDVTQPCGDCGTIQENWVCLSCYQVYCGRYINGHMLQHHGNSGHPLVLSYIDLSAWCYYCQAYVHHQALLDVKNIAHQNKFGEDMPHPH

| Compound | luciferase expression versus DMSO (vehicle) treated or wild type cells (A549 cells) | exogenous gene expression as measured by luciferase expression over appropriate control (FIG. 4) (A549 cells) | exogenous gene expression (luciferase) versus vehicle control (A549 cells) | microtubule (tubulin) acetylation (acetylated tubulin) | also measured |
| --- | --- | --- | --- | --- | --- |
| C=C1[C@@H](O)[C@@H]2O[C@]3(CC[C@H](/C=C/[C@@H](C)[C@@H]4CC(C)=C[C@@]5(O[C@H](C[C@@](C)(O)C(=O)O)CC[C@H]5O)O4)O3)CC[C@H]2O[C@@H]1[C@@H](O)C[C@H](C)[C@H]1O[C@@]2(CCCCO2)CC[C@H]1C [okadiac acid, Okadaic Acid] | did not result the increase in expression |  |  |  |  |
| C=CCNC1=C2C[C@@H](C)C[C@H](OC)[C@H](O)[C@@H](C)/C=C(\C)[C@H](OC(N)=O)[C@@H](OC)/C=C\C=C(/C)C(=O)NC(=CC1=O)C2=O [17-AAG] | no increase in expression; also recorded: dampened |  |  |  |  |
| O=C(CCCCCCC(=O)Nc1ccc([C@H]2O[C@@H](CSc3nc(-c4ccccc4)c(-c4ccccc4)o3)C[C@@H](c3ccc(CO)cc3)O2)cc1)NO [Tubacin, tubacin] |  | increased |  |  | exogenous gene expression as measured by luciferase expression over appropriate control (FIG. 4) (A549 cells; listed as tubacin): greatly increased |
| CC(/C=C/C(=O)NO)=C\[C@@H](C)C(=O)c1ccc(N(C)C)cc1 [TSA, trichostatin A] | slight but significant increase | increased | significant increases | significant microtubule acetylation | cytoplasmic HDAC activity in the assay [1]: quenched; higher increase in expression than sodium butyrate (A549 cells; A549, 24 hours after electroporation, 25 hours after drug): ~10 fold; microtubule (tubulin) acetylation (acetylated tubulin; listed as trichostatin A): increased |
| COC(=O)Nc1nc2ccc(C(=O)c3cccs3)cc2[nH]1 [nocodazole] |  |  |  |  | acetylated microtubules after treatment (acetylated tubulin; A549, Nocodazole, 3 hours): still remained; level of microtubules (polymerized tubulin) (acetylated tubulin; A549, Nocodazole, 3 hours): greatly diminished |
| CCCC(=O)[O-].[Na+] [sodium butyrate] |  |  | significant increases | not and not observed | HDAC inhibition selectivity (HDAC6): does not inhibit HDAC6; also recorded: inhibits all HDACs except for HDAC6 |
